Legend:
Laodelphax striatellus = test: Insecticidal test on Laodelphax striatellus (rice seedling dip); type: in vivo; conditions: 192 h, rice seedlings dipped 30 seconds, 3rd-instar larvae, 8 days after inoculation, read-out: insecticidal efficacy (corrected mortality rate) activity level
Excerpt: Insecticidal Test on Laodelphax striatellus
The oxime group-containing quinoline compounds represented by the general formula (1) of the present invention or salts thereof were separately dispersed in water and diluted to 500 ppm. Rice plant seedlings (variety: Nihonbare) were dipped in the agrochemical dispersions for 30 seconds. After air-dried, each seedling was put into a separate glass test tube and inoculated with ten 3rd-instar larvae of Laodelphax striatellus, and then the glass test tubes were capped with cotton plugs. At 8 days after the inoculation, the numbers of surviving larvae and dead larvae were counted, the corrected mortality rate was calculated according to the formula shown below, and the insecticidal efficacy was evaluated according to the criteria shown below. Corrected mortality rate (%)=100×(Survival rate in a non-treatment plot−Survival rate in a treatment plot)/Survival rate in a non-treatment plot [Math. 2] Criteria A: the corrected mortality rate is 100%. B: the corrected mortality rate is 90 to 99%. C: the corrected mortality rate is 80 to 89%. D: the corrected mortality rate is 50 to 79%.

Plutella xylostella = test: Insecticidal test on Plutella xylostella (dip of Chinese cabbage seedlings with laid eggs); type: in vivo; conditions: 144 h, seedlings with laid eggs dipped about 30 seconds, 25° C., 6 days after dip treatment, criteria of Test Example 2, read-out: insecticidal efficacy (corrected mortality rate) activity level
Excerpt: Insecticidal Test on Plutella xylostella
Adults of Plutella xylostella were released onto Chinese cabbage seedlings and allowed to lay eggs thereon. At 2 days after the release of the adults, the Chinese cabbage seedlings with laid eggs were dipped for about 30 seconds in agrochemical dispersions diluted to 500 ppm, each of which contained a different kind of oxime group-containing quinoline compound represented by the general formula (1) of the present invention as an active ingredient. After air-dried, the seedlings were kept in a thermostatic chamber at 25° C. At 6 days after the dip treatment, the number of hatched larvae per plot was counted, the mortality rate was calculated according to the formula shown below, and the insecticidal efficacy was evaluated according to the criteria of Test Example 2. This test was conducted in triplicate using 10 adults of Plutella xylostella per plot. Corrected mortality rate (%)=100×(Number of hatched larvae in a non-treatment plot−Number of hatched larvae in a treatment plot)/Number of hatched larvae in a non-treatment plot [Math. 3]

For `CCS(=O)(=O)c1cc2cc(/C(C)=N/OCC(F)(F)F)ccc2nc1-c1nc2cc(SC(F)(F)F)ccc2o1` [Compound 3-8, 1-(3-(ethylsulfonyl)-2-(5-(trifluoromethylthio)benzo[d]oxazol-2-yl)quinolin-6-yl)ethanone O-(2,2,2-trifluoroethyl)oxime], which mortality at 500 ppm (Laodelphax striatellus) is on record?
The mortality at 500 ppm was 100%.

And the mortality at 500 ppm (Plutella xylostella)?
The mortality at 500 ppm was 100%.

What does the source list for `CCS(=O)(=O)c1cc2cc(/C(C)=N/O)ccc2nc1-c1nc2cc(SC(F)(F)F)ccc2o1` [Compound 3-2, 1-(3-(ethylsulfonyl)-2-(5-(trifluoromethylthio)benzo[d]oxazol-2-yl)quinolin-6-yl)ethanone oxime]?
mortality at 500 ppm (Laodelphax striatellus): 100%; mortality at 500 ppm (Plutella xylostella): 100%

Which results are given for `CCS(=O)(=O)c1cc2ccc(/C=N/OCSC)cc2nc1-c1nc2cc(C(F)(F)F)cnc2n1C` [Compound 2-19, 3-(ethylsulfonyl)-2-(3-methyl-6-(trifluoromethyl)-3H-imidazo[4,5-b]pyridin-2-yl)quinoline-7-carbaldehyde O-(methylthiomethyl)oxime]?
mortality at 500 ppm (Laodelphax striatellus): 100%; mortality at 500 ppm (Plutella xylostella): 100%

With `CCS(=O)(=O)c1cc2ccc(/C=N/OC[S+](C)[O-])cc2nc1-c1nc2cc(C(F)(F)F)cnc2n1C` (centres unmarked) [Compound 2-24, 3-(ethylsulfonyl)-2-(3-methyl-6-(trifluoromethyl)-3H-imidazo[4,5-b]pyridin-2-yl)quinoline-7-carbaldehyde O-(methylsulfinylmethyl)oxime] as the compound, how does the mortality at 500 ppm (Laodelphax striatellus) read?
Its mortality at 500 ppm is 100%.

What about the mortality at 500 ppm (Plutella xylostella) of the same compound?
Its mortality at 500 ppm is 100%.

How did the mortality at 500 ppm (Laodelphax striatellus) turn out when `CCS(=O)(=O)c1cc2cc(/C=N/OCC(F)(F)F)ccc2nc1-c1nc2cc(C(F)(F)F)cnc2n1C` [Compound 1-7, (E)-3-(ethylsulfonyl)-2-(3-methyl-6-(trifluoromethyl)-3H-imidazo[4,5-b]pyridin-2-yl)quinoline-6-carbaldehyde O-(2,2,2-trifluoroethyl)oxime] was run?
Its mortality at 500 ppm is 100%.

What about the mortality at 500 ppm (Plutella xylostella) of the same compound?
Its mortality at 500 ppm is 100%.

How did the mortality at 500 ppm (Laodelphax striatellus) turn out when `CCS(=O)(=O)c1cc2cc(/C=N/O)ccc2nc1-c1nc2cc(C(F)(F)F)cnc2n1C` [Compound 1-1, (E)-3-(ethylsulfonyl)-2-(3-methyl-6-(trifluoromethyl)-3H-imidazo[4,5-b]pyridin-2-yl)quinoline-6-carbaldehyde oxime] was run?
Its mortality at 500 ppm is 100%.

What about the mortality at 500 ppm (Plutella xylostella) of the same compound?
Its mortality at 500 ppm is 100%.

With `CCS(=O)(=O)c1cc2ccc(/C=N/OCS(C)(=O)=O)cc2nc1-c1nc2cc(C(F)(F)F)cnc2n1C` [Compound 2-25, 3-(ethylsulfonyl)-2-(3-methyl-6-(trifluoromethyl)-3H-imidazo[4,5-b]pyridin-2-yl)quinoline-7-carbaldehyde O-(methylsulfonylmethyl)oxime] as the compound, how does the mortality at 500 ppm (Laodelphax striatellus) read?
Its mortality at 500 ppm is 100%.

And the mortality at 500 ppm (Plutella xylostella)?
The mortality at 500 ppm was 100%.
